The supplement of paper PMC11208160

Assay: recombinant barcode read abundance after kanamycin selection (control-corrected) (log10(CPM+1)); higher = more efficient recombination; sequences stand for … in AGTGCAGAGAAAATCGGCCAGTTTTCTCTGCCTGCAGTCCGCATGCCGT…AGATTTATGCAGCGGACTGCCTTTCTCCCAAAGTGATAAACCGGACAGTATCATGGACCGGTTTTCCCGGTAATCCGTATTTGCAAGGTTGGTTTCACT; site = the 11-nt target
In short: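 A vector carrying a T7-inducible recombinase and the last 73 bp of the bridge RNA received, by Gibson cloning, oligos encoding a promoter, target, barcode and the first 104 bridge RNA bases under J23119. The pooled constructs entered E. coli together with a donor plasmid by electroporation. Selection used chloramphenicol/ampicillin/kanamycin with 0.1 mM IPTG, with chloramphenicol/ampicillin LB agar as the control, each in two replicates. Recombination efficiency is the averaged, control-corrected counts-per-million of barcodes at recombinant junctions, reported as log10(CPM+1).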
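Note: IS621 recombinase and bridge RNA in Escherichia coli cells.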

Sequence	recombinant barcode read abundance (log10)
TAGTGCTCTTGGGTTCTAACCTGTTGCCC (site TAGTGCTCTTG)	0.116
TAGTGTCCTTGGGTTCTAACCTGTTGCCT (site TAGTGTACTAG)	0.126
TAGTGTCCTTGGGTTCTAACCTGTTGCCT (site TAGTGTCCTAG)	1.11
TAGTGTCCTTGGGTTCTAACCTGTTGCCT (site TAGTGTGCTAG)	0.521
TAGTGTCCTTGGGTTCTAACCTGTTGCCT (site TAGTGTTCTAG)	0.405
TAGTGTCCTTGGGTTCTAACCTGTTGCGT (site TAGTATCCTAC)	0.309
TAGTGTCCTTGGGTTCTAACCTGTTGCGT (site TAGTCTCCTAC)	0.104
TAGTGTCCTTGGGTTCTAACCTGTTGCGT (site TAGTGTCCTAC)	1.86
TAGTGTCCTTGGGTTCTAACCTGTTGCGT (site TAGTTTCCTAC)	0.0286
TAGTGTGCTTGGGTTCTAACCTGTTGCCT (site TAGTGTACTAG)	0.514
TAGTGTGCTTGGGTTCTAACCTGTTGCCT (site TAGTGTCCTAG)	0.137
TAGTGTGCTTGGGTTCTAACCTGTTGCCT (site TAGTGTGCTAG)	1.06
TAGTGTGCTTGGGTTCTAACCTGTTGCCT (site TAGTGTTCTAG)	0.0139
TAGTGTTCTTGGGTTCTAACCTGTTGCCT (site TAGTGTACTAG)	0.104
TAGTGTTCTTGGGTTCTAACCTGTTGCCT (site TAGTGTCCTAG)	0.181
TAGTGTTCTTGGGTTCTAACCTGTTGCCT (site TAGTGTGCTAG)	0.106
TAGTGTTCTTGGGTTCTAACCTGTTGCCT (site TAGTGTTCTAG)	0.57
TAGTTAGCTTGGGTTCTAACCTGTTGCCT (site TAGTTAGCTAG)	0.756
TAGTTAGCTTGGGTTCTAACCTGTTGCCT (site TAGTTAGCTCG)	0.217
TAGTTAGCTTGGGTTCTAACCTGTTGCCT (site TAGTTAGCTGG)	0.251
TAGTTAGCTTGGGTTCTAACCTGTTGCCT (site TAGTTAGCTTG)	0.11
TAGTTCACTTGGGTTCTAACCTGTTGCCA (site TAGTTAACTTG)	0.273

Sequence	recombinant barcode read abundance (log10)
TAGTTCACTTGGGTTCTAACCTGTTGCCA (site TAGTTCACTTG)	0.0767
TAGTTCACTTGGGTTCTAACCTGTTGCCA (site TAGTTGACTTG)	0.0545
TAGTTCACTTGGGTTCTAACCTGTTGCCA (site TAGTTTACTTG)	0.0834
TAGTTGTCTTGGGTTCTAACCTGTTGCTT (site CGACGCACTCC)	0.301
TAGTTGTCTTGGGTTCTAACCTGTTGCTT (site TAGTTGTCTAA)	0.569
TAGTTTACTTGGGTTCTAACCTGTTGCTA (site GGTCAGTCTCC)	0.0822
TAGTTTACTTGGGTTCTAACCTGTTGCTA (site TAGTTTACTTA)	0.0536
TAGTTTGCTTGGGTTCTAACCTGTTGCCG (site ACCGACCCTAT)	0.00726
TAGTTTGCTTGGGTTCTAACCTGTTGCCG (site TAGTTTGCTCG)	0.743
TATAAGTCTTGGGTTCTAACCTGTTGCCT (site CGTAAGTCTAG)	0.0475
TATAAGTCTTGGGTTCTAACCTGTTGCCT (site TATAAGTCTAG)	0.0571
TATAATACTTGGGTTCTAACCTGTTGCGG (site TAGAATACTCC)	0.156
TATAATACTTGGGTTCTAACCTGTTGCGG (site TATAATACTCC)	0.659
TATAGAGCTTGGGTTCTAACCTGTTGCGG (site TAAAGAGCTCC)	0.358
TATAGAGCTTGGGTTCTAACCTGTTGCGG (site TACAGAGCTCC)	0.297
TATAGAGCTTGGGTTCTAACCTGTTGCGG (site TAGAGAGCTCC)	0.488
TATAGAGCTTGGGTTCTAACCTGTTGCGG (site TATAGAGCTCC)	2.21
TATATAACTTGGGTTCTAACCTGTTGCCT (site TATAAAACTAG)	0.137
TATATAACTTGGGTTCTAACCTGTTGCCT (site TATACAACTAG)	0.0941
TATATAACTTGGGTTCTAACCTGTTGCCT (site TATAGAACTAG)	0.119
TATATAACTTGGGTTCTAACCTGTTGCCT (site TATATAACTAG)	0.125
TATCAGACTTGGGTTCTAACCTGTTGCCA (site TATCAGACTTG)	0.639

Sequence	recombinant barcode read abundance (log10)
TATCAGACTTGGGTTCTAACCTGTTGCCA (site TATCTGACTAG)	0.119
TATCCGACTTGGGTTCTAACCTGTTGCCG (site TATCCGACTAG)	0.224
TATCCGACTTGGGTTCTAACCTGTTGCCG (site TATCCGACTCG)	0.396
TATCCGACTTGGGTTCTAACCTGTTGCCG (site TATCCGACTGG)	0.386
TATCCGACTTGGGTTCTAACCTGTTGCCG (site TATCCGACTTG)	0.11
TATCCGACTTGGGTTCTAACCTGTTGCCT (site TATCCGACTAG)	1.12
TATCCGACTTGGGTTCTAACCTGTTGCCT (site TATCCGACTCG)	0.553
TATCCGACTTGGGTTCTAACCTGTTGCCT (site TATCCGACTGG)	0.0369
TATCCGACTTGGGTTCTAACCTGTTGCCT (site TATCCGACTTG)	0.0377
TATGACGCTTGGGTTCTAACCTGTTGCCT (site TAAGACGCTAG)	0.261
TATGACGCTTGGGTTCTAACCTGTTGCCT (site TACGACGCTAG)	0.124
TATGACGCTTGGGTTCTAACCTGTTGCCT (site TAGGACGCTAG)	0.00539
TATGACGCTTGGGTTCTAACCTGTTGCCT (site TATGACGCTAG)	1.12
TATGCGGCTTGGGTTCTAACCTGTTGCCT (site TATGAGGCTAG)	0
TATGCGGCTTGGGTTCTAACCTGTTGCCT (site TATGCGGCTAG)	0.34
TATGCGGCTTGGGTTCTAACCTGTTGCCT (site TATGGGGCTAG)	0.193
TATGCGGCTTGGGTTCTAACCTGTTGCCT (site TATGTGGCTAG)	0.11
TATTAATCTTGGGTTCTAACCTGTTGCCT (site CATTAGTCTAG)	0.0101
TATTAATCTTGGGTTCTAACCTGTTGCCT (site TATTAATCTAG)	0.0472
TATTATACTTGGGTTCTAACCTGTTGCCT (site TATTATACTAA)	0.00549
TATTATACTTGGGTTCTAACCTGTTGCCT (site TATTATACTAC)	0.0157
TATTATACTTGGGTTCTAACCTGTTGCCT (site TATTATACTAG)	0.035

Sequence	recombinant barcode read abundance (log10)
TATTATACTTGGGTTCTAACCTGTTGCCT (site TATTATACTAT)	0.467
TATTCACCTTGGGTTCTAACCTGTTGCCT (site AATTCACCTAG)	0.0667
TATTCACCTTGGGTTCTAACCTGTTGCCT (site CATTCACCTAG)	0.0903
TATTCACCTTGGGTTCTAACCTGTTGCCT (site GATTCACCTAG)	0.0774
TATTCACCTTGGGTTCTAACCTGTTGCCT (site TATTCACCTAG)	0.358
TATTCTCCTTGGGTTCTAACCTGTTGCCT (site TATTCTCCTAA)	0.212
TATTCTCCTTGGGTTCTAACCTGTTGCCT (site TATTCTCCTAC)	0.0221
TATTCTCCTTGGGTTCTAACCTGTTGCCT (site TATTCTCCTAG)	0.0657
TATTCTCCTTGGGTTCTAACCTGTTGCCT (site TATTCTCCTAT)	0.0206
TATTCTCCTTGGGTTCTAACCTGTTGCGT (site TATTCTCCTAA)	0.0153
TATTCTCCTTGGGTTCTAACCTGTTGCGT (site TATTCTCCTAC)	0.243
TATTCTCCTTGGGTTCTAACCTGTTGCGT (site TATTCTCCTAG)	0.12
TATTCTCCTTGGGTTCTAACCTGTTGCGT (site TATTCTCCTAT)	0.0406
TATTCTCCTTGGGTTCTAACCTGTTGCTT (site TATTCTCCTAA)	0.266
TATTCTCCTTGGGTTCTAACCTGTTGCTT (site TATTCTCCTAC)	0.0156
TATTCTCCTTGGGTTCTAACCTGTTGCTT (site TATTCTCCTAG)	0.0207
TATTCTCCTTGGGTTCTAACCTGTTGCTT (site TATTCTCCTAT)	0.0253
TATTGGACTTGGGTTCTAACCTGTTGCAG (site TATTGGACTAT)	0.264
TATTGGACTTGGGTTCTAACCTGTTGCAG (site TATTGGACTCT)	1.05
TATTGGACTTGGGTTCTAACCTGTTGCAG (site TATTGGACTGT)	0.0393
